From patent publication US10894820B2, “Antiretroviral drug targeting human endogenous retrovirus” (priority 2014, dated 2021) come the findings set out here.

In data set [1] the test system is HERV-W related transcripts (env and pol mRNA). The data set can be described thus: HERV-W related transcripts levels by RT-qPCR in PBMC of MS patients treated with GNbAC1 (GNC002 Phase IIa trial). In kind it is in vivo, human. Particulars: for all HERV-W transcript levels compared to basal values at inclusion: at the 6th monthly GNbAC1 administration, relative expression to GUS B. The procedure: The present GNC002 Phase IIa clinical trial was performed to assess the safety profile and the pharmacokinetics of GNbAC1 at 2 and 6 mg/kg in 10 MS patients. GNC002 consisted in a 12 months longitudinal study, in which GNbAC1 is administered on a monthly basis.
The present analysis was conducted on samples collected during the first 6 months of GNC002, where HERV-W related transcripts levels were assessed by real time quantitative polymerase chain reaction (RT-qPCR) in peripheral blood mononuclear cells (PBMC) of enrolled patients. HERV-W transcripts are assessed by different primers/probe sets as follows: MSRV-env, HERV-W-UNO, HERV-W-UNO2,
Briefly, the first step consisted in the extraction of total RNA from PBMC samples. Samples were PBMC isolated from blood collected on CPT tubes and frozen in 0.5 ml of DMSO 10% in Foetal Calf Serum. After thawing, PBMC samples were washed with ice-cold PBS and total RNAs were extracted with QIAamp RNeasy Mini Kit. Then, cDNAs were prepared by retro-transcribing all mRNA contained in previously extracted total RNAs. Quantitative PCRs were conducted on these cDNAs, with addition of an internal standard used as an inter-plate calibrator (allowing the standardization of the values throughout an experiment with multiple plates). Results were expressed as the relative expression of the targeted RNA (MSRV/HERV-W), by a ratio to the expression of GUS B RNA, a reference housekeeping gene with a stable expression level in MS population.
The Relative Expression of each targeted RNA within each sample is calculated as follows: Targeted RNA Relative Expression to GUS B=2^(Cq GUS B-Cq targeted RNA) Extraction Yields and Samples Exclusion
For each patient included in the study, PBMCs were isolated from blood sample at Day 1 (inclusion), Day 2, Day 8, Day 15, and Day 29. Afterwards, patients have received 5 additional monthly GNbAC1 administrations and PBMCs were isolated from blood sample before each infusion of antibody. Thus, the following results represent the variation of each HERV-W related transcript over the first 6 months of GNC002 study.
The second GNbAC1 administration occurred at different time points from Day 1, depending on patients. Thus, the mean variation of HERV-W related transcripts was assessed with blood samples collected before each GNbAC1 administration only.
In general terms: Real-time PCR tracks product formation cycle by cycle.

For data set [2] the following is noted: healthy volunteers, Phase 1.
For data set [3], the system named is HERV-W Reverse-transcriptase (RT). Nature of the data set: Western blot of HERV-W pol-encoded Reverse-Transcriptase protein in CH1/CH2 cell cultures treated with GNbAC1 and/or AZT. The class given is cell-based, Human. As to conditions: CH1 and CH2 co-culture; AZT 1 μg/ml, GNbAC1 300 μg/ml; versus mock-treated cells. The procedure: Human CH1 and CH2 cells (1:1) cells were co-cultured for optimizing the growth of CH2 cells and maintained in 6-well plates (CC7672-7506; CytoOne) at a density of 1.10^6 cell/well in IMDM medium (Ser. No. 12/440,053; Lifetech) supplemented with 10% fetal calf serum (Ser. No. 10/270,106; Invitrogen), 1% penicillin/streptomycin (P4333; Sigma) at 37° C. with 5% CO2. Cells were treated with i) AZT (1 μg/ml, A21-69; Sigma), ii) GNbAC1 (300 μg/ml, T950111-A; Polymun), iii) AZT+GNbAC1 or corresponding controls with GNbAC1 buffer [20 mM His, 5% Sucrose (w/v), 0.01% Tween 20 (w/v)].
CH1 and CH2 cells were resuspended in 200 μl of RIPA buffer (R0278, SIGMA) containing cOmplete® anti-phosphatase inhibitor cocktail (04 693 132001; Roche) and 0.05% LPG (326495-22-1; Avanti Polar) at 4° C., incubated for 2 hours at 26° C. on a rotating platform and centrifuged at 10000 g for 20 minutes at 26° C. Supernatant were collected and stored at −20° C.
Protein extracts were diluted (2:1) in 2× Laemmli buffer (Biorad) and heated for 5 minutes at 100° C. before loading. Proteins were separated by 7.5% sodium dodecyl sulfate-polyacrylamide gel electrophoresis (TGX, Biorad). Gels were run for a time period of 15 min at 120 mA in running buffer (Life Technologies). […] Protein of interest was detected with a colometric reaction (Opti 4-CN, Biorad), according to the provided protocol. […]
A general note: A western blot detects proteins with antibodies after separation by electrophoresis.

On to “GNbAC1: humanized IgG4 monoclonal antibody directed against HERV-W/MSRV Envelope protein; heavy chain SEQ ID No: 9, light chain SEQ ID No: 10”, for which, in data set [1] (2 mg/kg cohort, PBMC), the “all HERV-W transcript levels compared to basal values at inclusion” value is on record as “decrease”. Further, the “all HERV-W transcript levels compared to basal values at inclusion” value in data set [1] (6 mg/kg cohort, PBMC) is “confirmed”. Also, the “env mRNA and pol mRNA levels compared to levels before treatment” value in data set [1] (after three and six months of treatment) was “parallel and progressive decrease”. For the same substance, in data set [1] (injected once a month over six months, PBMC, pol qPCR protocol), the “HERV-W pol mRNA level” value is “decrease is also marked”. In data set [2], the pharmacokinetics entry is on record as “linear” and the safety profile entry is “favorable”. For the same substance, the “HERV-W RT protein expression (Western blot signal)” value in data set [3] is recorded as “minor effects”.
